Values quoted from earlier work, collected in US20140288899A1, “C[…] OF BINDING FREE ENERGY, C[…] OF BINDING FREE ENERGY, PROGRAM, SCREENING METHOD OF COMPOUND” (FUJITSU LIMITED, priority 2013, published 2014).

Columns and labels:
[1] = biological target: T1, FK506 BINDING PROTEIN (Homo sapiens, UniProt P62942); settings: calculation value of Wang et al., Biophysical Journal Vol. 91, 2798-2814; restriction with a spring
[2] = biological target: T1, FK506 BINDING PROTEIN; settings: experimental value disclosed in Holt et al., J. Am. Chem. Soc. 1993, 115, 9925-9938

T1 sequence (P62942 whole entry): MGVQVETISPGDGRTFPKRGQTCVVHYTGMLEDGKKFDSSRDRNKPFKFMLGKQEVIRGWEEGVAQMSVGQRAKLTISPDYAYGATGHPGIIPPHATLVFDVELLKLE

Question: For `CCC(C)(C)C(=O)C(=O)N1CCCC[C@H]1C(=O)O[C@H](CCc1ccccc1)c1ccccc1` [1fkg, 1,3-DIPHENYL-1-PROPYL-1-(3,3-DIMETHYL-1,2-DIOXYPENTYL)-2-PIPERIDINE CARBOXYLATE], which “binding free energy, calculation result of Comparative Example” value [1] is on record?
Answer: -10.3 kcal/mol

Question: And the “binding free energy, experimental value” [2]?
Answer: -10.9 kcal/mol
